Measurements: US4112076A, “Epi-daunomycin and epi-adriamycin compounds and method of use” (priority 1975, dated 1978)

Tests used:
Ascites Sarcoma 180 = Ascites Sarcoma 180 in Swiss CD1 mice, i.p.; assay type: in vivo, mouse (Swiss CD1); conditions: i.p. one day after inoculation
Experimental: In Table 5 the activity of 3'-4'-epi-6'-hydroxyadriamycin on Ascites Sarcoma 180 in mice is reported. The test was carried out on groups of 10 mice (Swiss CD1). The compound under examination was administered intraperitoneally in varying doses to the test animals one day after intraperitoneal inoculation with 1×10^6 tumor cells/mouse.
The average survival time is given as percentage of the survival time of untreated animals, which is arbitrarily designated as 100%. The number of long term survivors (LTS) is also reported.

[1] = system: experimental mouse tumors; assay: Experimental mouse tumors (overall); assay type: in vivo; conditions: mouse, in vivo
Experimental: The test was carried out on groups of 10 mice (Swiss CD1). The compound under examination was administered intraperitoneally in varying doses to the test animals one day after intraperitoneal inoculation with 1×10^6 tumor cells/mouse.
The above compound was tested in comparison with adriamycin in several in vitro systems and experimental mouse tumors.

L 1210 leukemia = L 1210 leukemia bearing BDF mice, single i.p. treatment on first day; assay type: in vivo, mouse (BDF); conditions: for T/C %: single i.p. day 1
From the text: Inbread BDF mice were intraperitoneally inoculated with 1×10^5 leukemia cells/mouse and then treated with 3'-4'-epi-6'-hydroxydaunomycin:Single treatment i.p. on the first day.

Compound	LTS (long term survivors) (Ascites Sarcoma 180; 3 ng/Kg (so in the source))	T/C % (average survival time, % of untreated) (Ascites Sarcoma 180; 3 ng/Kg (so in the source))	LTS (long term survivors) (Ascites Sarcoma 180; 4.5 ng/Kg (so in the source))	T/C % (average survival time, % of untreated) (Ascites Sarcoma 180; 4.5 ng/Kg (so in the source))	T/C % (average survival time, % of untreated) (Ascites Sarcoma 180; 6.7 ng/Kg (so in the source))	T/C % (average survival time, % of untreated) (Ascites Sarcoma 180; 10.5 ng/Kg (so in the source))	activity in experimental tumors [1]	T/C % (L 1210 leukemia; 7.5 ng/Kg (so in the source))	T/C % (L 1210 leukemia; 11.5 ng/Kg (so in the source))	T/C % (L 1210 leukemia; 17.25 ng/Kg (so in the source))	in vivo activity (L 1210 leukemia; Table 4)
COc1cccc2c1C(=O)c1c(O)c3c(c(O)c1C2=O)C[C@@](O)(C(=O)CO)C[C@@H]3O[C@H]1C[C@@H](N)[C@@H](O)[C@H](CO)O1 [3'-4'-epi-6'-hydroxyadriamycin, 3',4'-epi-6'-hydroxy-adriamycin]	1/10	123%	2/10	226%	138%	138%	active in experimental tumors				
COc1cccc2c1C(=O)c1c(O)c3c(c(O)c1C2=O)C[C@@](O)(C(C)=O)C[C@@H]3O[C@H]1C[C@@H](N)[C@@H](O)[C@H](CO)O1 [3'-4'-epi-6'-hydroxydaunomycin, 3',4'-epi-6'-hydroxy-daunomycin]								150%	150%	150%	significant in vivo activity
